Experimental data published in paper PMC6915869, “Immunosuppressive effects of a novel potassium channel toxin Ktx-Sp2 from Scorpiops Pocoki” (Cell & Bioscience, 2019).

Test system: Ca^2+ influx in Jurkat T cells
Assay: Live cell Ca^2+ imaging (Fura-2) in Jurkat T cells
Type: cell-based, human
Settings: 10 μM CPA, absence of extracellular Ca^2+, Fura-2
Experimental: Jurkat T cells were loaded with 4 μM Fura-2 AM (Life Technologies) for 60 min at 37 °C. Cells were then washed 3 times and incubated in Hank’s Balanced Salt Solution (HBSS) for 30 min at room temperature before use. Fluorescence at 340 nm and 380 nm excitation wavelengths was recorded on an inverted Nikon Ti-E microscope equipped with 340, 360 and 380 nm excitation filter wheels using NIS-Elements imaging software (Nikon Instruments Inc., Melville, NY, USA). Fura-2 ratios (F340/F380) reflect changes in [Ca^2+]i upon stimulation. Data were obtained from 100 to 250 cells in time-lapse images from each coverslip.
To test this hypothesis we performed live cell Ca^2+ imaging using the Ca^2+ indicator dye Fura-2 to determine the effect of Ktx-Sp2 on [Ca^2+]i in the presence of intracellular Ca^2+ store depletion by cyclopiazonic acid (CPA), an inhibitor of the sarcoplasmic reticulum Ca^2+-ATPase. […] When 2 mM Ca^2+ was added to the Ca^2+-free HBSS, we observed a large Ca^2+ influx into the cells. […] At 10 μM, Ktx-Sp2 decreased the F340/F380 ratio from 0.14 ± 0.02 to 0.05 ± 0.01 (n = 278) (Fig. 5b).

## CC(=O)C1=C(O)[C@@H]2[C@H]3c4c[nH]c5cccc(c45)C[C@H]3C(C)(C)N2C1=O [CPA, cyclopiazonic acid, reference compound]
  rise of [Ca^2+]i induced by CPA: relative small, transient rise of [Ca^2+]i
